Measured values from patent publication US10954258B2, “STAT3 dimerization inhibitors” (H. LEE MOFFITT CANCER CENTER AND RESEARCH INSTITUTE, INC., priority 2012, dated 2021).

Experiments:
Type in all cases: cell-based, human
[1] = tested on: MDA-MB-468, MDA-MB-231 and A-549 cells; assay: Matrigel invasion assay, cells with activated STAT3; conditions: 48 hours
[2] = target: dimerization of FLAG-STAT3 and HA-STAT3 (Mus musculus, UniProt P42227); assay: co-localization of FLAG-STAT3 and HA-STAT3 by immunofluorescence; conditions: HEK293 cells; 1, 2 or 4 hours
Protocol: HEK-293/FLAG-Stat3/HA-Stat3 cells were cultured (4000 cells per well) with G418 400 ug/ml in 8 well chamber slide. The cells were treated with S3I-1757 or S3I-1756 for 1 hour, 2 hours, or 4 hours. The cells were then rinsed with phosphate buffered saline (PBS), fixed with ice-cold methanol for 15 minutes, washed 3 times in PBS, permeabilized with 0.2% Triton X-100 for 15 minutes, and further washed 3-4 times with PBS. Cells were then blocked in 1% bovine serum albumin (BSA) for 30 min and incubated with anti-HA (Santa Cruz, Santa Cruz, Calif., USA) or anti-FLAG (Sigma, St. Louis, Mo., USA) primary antibody at 1:100 dilution at 4° C. overnight. Subsequently, cells were rinsed 4-5 times in PBS, incubated with Alexa fluor secondary antibody (Invitrogen, Carlsbad, Calif., USA) for 1 hour at room temperature in the dark. Cells were then washed 5 times with PBS, covered with cover slides with […] mounting medium containing DAPI (Vector Lab, Inc., Burlingame, Calif.), and examined immediately under Zeiss Upright Fluorescence Microscope (Zeiss, Thornwood, N.Y., USA).
HASTAT3/FLAG-STAT3/HEK 293 cells were treated with vehicle, S3I-1757 or S3I-1756 and the cells were processed for immunofluorescence staining for FLAG-STAT3 and HA-STAT3 and analyzed by confocal microscopy.

H460 cells [3] = assay: anchorage independent growth by soft agar assay, H460; conditions: low activated STAT3 level
[4] = tested on: STAT3-DNA binding activity in MDA-MB-468 and A-549 cells; assay: STAT3-DNA binding filter plate assay on nuclear extracts; conditions: 1, 2 or 4 hours
Protocol: Nuclear extract preparation was carried out as described in Yu, et al., Science 1995; 269(5220):81-83. The STAT3-DNA binding filter plate assay was performed following the manual of the filter plate assay kit (Signosis, Sunnyvale, Calif.), as described for NFkB (Ying, et al., Blood 2011; 117(4):1301-1307). The TF Binding buffer was mixed with the STAT3 probe (biotin labeled STAT3 DNA binding sequence) and nuclear extract and incubated at 16° C. for 30 minutes to form the STAT3-DNA complex. The STAT3-DNA complex was then separated from free probe by using a filter plate. After several steps of binding and washing, bound STAT3 probe is retained on the filter in the corresponding well of Filer Plate and the free DNA probe is removed. The bound pre-labeled STAT3 probe was then eluted from the filter plate by centrifuge with elution buffer. Eluted probes were then hybridized into 96-well Hybridization Plate for quantitative analysis. The captured STAT3 probe was further detected by conjugation with streptavidin-HRP. The chemiluminescence of each well was detected by 2104 EnVisionR Multilabel Reader of PerkinElmer (Pekin Elmer, Waltham, Mass., USA) within 5 minutes after mixture with substrates. […]

H460 cells [5] = assay: wound healing (migration) assay, H460; conditions: low levels of P-STAT3
[6] = tested on: SRE promoter-renilla luciferase reporter (pLucSRE); assay: luciferase reporter assay, SRE promoter; conditions: MDA-MB-468; 48 hours
Protocol: MDA-MB-468 cells were plated into 12-well plate with 4×10^5 cells per well. The cells were transiently transfected with pLucSRE, pLucTKS3 or STAT3-C with β-gal and then were treated with vehicle, S3I-1756 or S3I-1757 for 48 hours. Then cytosolic extracts of equal total protein were prepared from S3I-1757-treated or -untreated and analyzed for luciferase activity using a TD-20/20 luminometer (Turner Designs, Sunnyvale, Calif., USA) described by us previously.
To this end, MDA-MB-468 cells were transiently co-transfected with a STAT3-responsive promoter-firefly luciferase reporter (pLucTKS3) and 3-gal reporter used to normalize the transfection efficacy. To determine the selectivity of S3I-1757 to suppress STAT3-dependent over STAT3-independent transcriptional activation, MDA-MB-468 cells were also co-transfected with SRE promoter-renilla luciferase reporter (pLucSRE) and β-gal reporter. […] STAT3-C spontaneously dimerizes via disulfide bonds in the absence of tyrosine phosphorylation and is therefore not predicted to be inhibited by a small molecule that is designed to mimic phosphotyrosine binding.

[7] = tested on: MDA-MB-468 cells transiently transfected with vector or STAT3C; assay: STAT3-C rescue: western blotting, MTT, migration and invasion
Text: To this end, MDA-MB-468 were transfected cells with STAT3-C, then treated the cells with S3I-1757 and processed the cells for western blotting, cell growth, migration and invasion.

STAT3 binding to EGFR = target: T1, STAT3 binding to EGFR (Mus musculus, UniProt P42227); assay: co-immunoprecipitation of EGFR and P-STAT3 with HA-STAT3 after EGF stimulation; conditions: HA-STAT3/FLAG-STAT3/HEK293 cells stimulated with EGF
T1 construct: expressed in transfected cells; host or cells: HEK293 stably co-expressing HA-STAT3 and FLAG-STAT3; EGFR endogenous; stimulated with 100 ng/ml EGF

[8] = tested on: MDA-MB-468, MDA-MB-231, H358, A549 cells; assay: MTT assay, cells with persistently activated STAT3; conditions: 48 hours
Protocol: MTT assay was performed exactly as described by Balasis, et al., Clin. Cancer Res. 2011; 17(9):2852-2862, to determine the effects of S3I-1757 on cell proliferation. Cells were plated in a 96 well tissue culture plate (2000 cells per well) and incubated for 12 hours. After incubation the cells were treated with vehicle S3I-1757 or S3I-1756 for 48 hours. After incubation, freshly prepared MTT (3 mg/ml) in 1×PBS was added to each well and incubated for 3 hours and the plate was read at 570 nm.
Several cell lines were used, some with persistently Y705 phosphorylated STAT3 and others without (FIG. 9A). […] The effects of S3I-1757 on cancer cell anchorage-independent growth were next determined by soft-agar assay.

MDA-MB-468 cells = assay: anchorage independent growth by soft agar assay, MDA-MB-468; conditions: constitutively active STAT3
[9] = MDA-MB-468 transfected with STAT3-C

dimerization of FLAG-STAT3 and HA-STAT3, sequence (P42227 whole entry): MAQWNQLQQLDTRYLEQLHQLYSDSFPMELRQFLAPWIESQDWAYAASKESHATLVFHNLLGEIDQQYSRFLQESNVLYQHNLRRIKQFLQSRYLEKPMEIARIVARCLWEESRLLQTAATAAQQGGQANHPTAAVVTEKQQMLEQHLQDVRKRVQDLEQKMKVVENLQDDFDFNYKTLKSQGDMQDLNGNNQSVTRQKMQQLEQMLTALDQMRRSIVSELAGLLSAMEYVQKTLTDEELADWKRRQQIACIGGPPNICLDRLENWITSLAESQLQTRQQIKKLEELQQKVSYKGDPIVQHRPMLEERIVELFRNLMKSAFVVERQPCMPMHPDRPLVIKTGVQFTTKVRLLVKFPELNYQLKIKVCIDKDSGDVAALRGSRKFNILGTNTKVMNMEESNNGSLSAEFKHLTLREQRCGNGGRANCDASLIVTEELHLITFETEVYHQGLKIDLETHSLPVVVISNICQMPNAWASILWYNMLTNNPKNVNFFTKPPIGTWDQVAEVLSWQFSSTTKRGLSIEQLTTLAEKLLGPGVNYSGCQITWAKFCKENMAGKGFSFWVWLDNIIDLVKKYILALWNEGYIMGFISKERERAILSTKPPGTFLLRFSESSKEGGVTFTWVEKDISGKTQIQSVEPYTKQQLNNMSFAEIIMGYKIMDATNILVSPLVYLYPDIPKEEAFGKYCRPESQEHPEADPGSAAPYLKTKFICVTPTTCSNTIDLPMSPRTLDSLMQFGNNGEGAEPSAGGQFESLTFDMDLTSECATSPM
T1 sequence (P42227 whole entry): as above

- SRE-driven luciferase activity (STAT3-independent) [6]: minimal effect
- EGFR and P-STAT3 co-immunoprecipitated with HA-STAT3 (STAT3 binding to EGFR): inhibited these interactions
SMILES: O=C(O)c1cc(N(Cc2ccc(C3CCCCC3)cc2)C(=O)c2ccc(Oc3ccccc3)cc2)ccc1O [Compound 20g, 5-(N-(4-Cyclohexylbenzyl)-4-phenoxybenzamido)-2-hydroxybenzoic acid]
- invasion, MDA-MB-468, MDA-MB-231 and A-549 [1]: inhibited invasion
- co-localization of FLAG-STAT3 and HA-STAT3 (yellow color) [2]: progressively less yellow color over time
- anchorage-independent growth (soft agar), H460 (H460 cells [3]): little effect
- activated STAT3 in nuclear extracts capable of binding the STAT3 DNA binding probe [4]: contained less activated STAT3 capable of binding the STAT3 DNA binding probe
- migration (wound healing), H460 (H460 cells [5]): minimally affected
- apoptosis induction (caspase 3, PARP) ([7]; MDA-MB-468, FIG. 11A): induced activation of caspase 3 and PARP cleavage
- expression levels of BclxL, cyclin D1 and survivin ([7]; MDA-MB-468, FIG. 11A): inhibited the expression levels of these proteins
- down regulation of BclxL, cyclin D1, survivin and apoptosis with ectopic STAT3-C [7, 9]: ectopic expression of STAT3-C inhibited the ability of S3I-1757 to down regulate
- inhibition of migration and invasion, STAT3-C-transfected cells [7, 9]: partially rescued
- proliferation/survival by MTT with STAT3-C ([7]; MDA-MB-468 transfected with STAT3-C, FIG. 11B): STAT3-C inhibited S3I-1757 from inhibiting the proliferation/survival
- migration and invasion, vector-transfected cells ([7]; MDA-MB-468 transfected with vector DNA): inhibited the migration and invasion
- anchorage-dependent proliferation by MTT, cells that harbor persistently activated STAT3 [8]: inhibited in a dose dependent manner
- anchorage independent growth (soft agar), MDA-MB-468 (MDA-MB-468 cells): significantly inhibited
